Measured values published in patent publication US4560692A, “4-Piperidino-2-phenylquinolines” (Hoffmann-La Roche Inc., priority 1984, dated 1985).
Where two headings read alike, the source gives them in different places.

Tests used:
[1] = 24 hour acute toxicity (LD-50); conditions: in vivo, ">" = not tested above indicated value
Experimental: (§1) Utilizing the procedures given below, the compounds of formula I synthesized in the previous examples were assayed for antimetrezol activity and ^3 H-diazepam binding activity. The 24 hour acute toxicity (LD-50, expressed as mg/kg) of each of these compounds was also determined in the standard fashion.

[2] = target: ^3 H-Diazepam binding, rat brain cortical fragments; assay: ^3 H-Diazepam binding assay; conditions: inhibition of ^3 H-Diazepam binding by 50%
Experimental: Rat brain cortical fragments are prepared and the binding procedures performed as described by Mohler and Okada (Life Sciences, 20, 2101, 1977) except that Tris buffer is substituted for Krebs buffer. Drugs are assayed in triplicate. Radioactivity is measured by liquid scintillation counting.

[3] = tested on: convulsive seizures (Ptz. administered intraveneously); assay: Intravenous antipentylenetetrazole (Ptz.) test, oral compound, protection against convulsions; assay type: in vivo, Male CF-1 mice; conditions: Mus musculus
Experimental: as §1
Male CF-1 mice, 45-54 days old, housed in the same facility for one week and food-deprived for about 24 hours are used in this test. […] One hour later, Ptz. is administered intraveneously at 70 mg/kg (convulsant dose 100) and animals are observed 30 seconds for protection against convulsions. If the compound is active orally 8 animals are used per dose level. […] Calculations: The ED50 values and 95% fiducial limits are calculated using a computer program based on the method of D. J. Finney ("Probit Analysis", Cambridge University Press, Cambridge, England, 1971).

[4] = compounds of formula I, read-out: ^3 H-Dz. IC50
[5] = compounds of formula I, oral, 1 h before Ptz. 70 mg/kg i.v., mice, ">" = not tested above indicated value, read-out: Ptz. ED50
[6] = po, 1 h, read-out: ED50 (95% Fiducial Limits)

## CNC(=O)C1CCN(c2cc(-c3ccc(F)cc3)nc3ccc(F)cc23)CC1 [1-6-Fluoro-2-(4-fluorophenyl)-4-quinolinyl)]-N-methyl-4-piperidinecarboxamide]
[1]
  LD50 at 24 h: > 1000 mg/kg
[2]; [4]
  IC50: 1.8 nM
[3]; [5]
  ED50: 13 mg/kg

## CCNC(=O)C1CCN(c2cc(-c3ccc(F)cc3)nc3ccc(F)cc23)CC1 [1-Ethyl-1-[6-fluoro-2-(4-fluorophenyl)-4-quinolinyl]-4-piperidinecarboxamide]
[1]
  LD50 at 24 h: > 1000 mg/kg
[2]; [4]
  IC50: 3 nM
[3]; [5]
  ED50: 22 mg/kg

## NC(=O)C1CCN(c2cc(-c3ccc(Br)cc3)nc3ccccc23)CC1 [1-[2-(4-Bromophenyl)-4-quinolinyl]-4-piperidinecarboxamide]
[1]
  LD50 at 24 h: > 1000 mg/kg
[2]; [4]
  IC50: 35 nM
[3]; [5]
  ED50: 41 mg/kg

## CCN(CC)C(=O)C1CCN(c2cc(-c3ccc(Cl)cc3)nc3ccccc23)CC1 [1-[2-(4-Chlorophenyl)-4-quinolinyl]-N,N-diethyl-4-piperidinecarboxamide]
[2]; [4]
  IC50: 500 nM

## CN(C)C(=O)C1CCN(c2cc(-c3ccc(Cl)cc3)nc3ccccc23)CC1 [1-[2-(4-Chlorophenyl)-4-quinolinyl]-N,N-dimethyl-4-piperidinecarboxamide]
[1]
  LD50 at 24 h: > 1000 mg/kg
[2]; [4]
  IC50: 80 nM
[3]; [5]
  ED50: 24 mg/kg

## CNC(=O)C1CCN(c2cc(-c3ccc(Cl)cc3)nc3ccccc23)CC1 [1-[2-(4-Chlorophenyl)-4-quinolinyl]-N-methyl-4-piperidinecarboxamide]
[1]
  LD50 at 24 h: > 1000 mg/kg
[2]; [4]
  IC50: 19.5 nM
[3]; [5]
  ED50: 9 mg/kg

## NC(=O)C1CCN(c2cc(-c3ccc(Cl)cc3)nc3ccc(F)cc23)CC1 [1-[2-(4-Chlorophenyl)-6-fluoro-4-quinolinyl]-4-piperidinecarboxamide]
[1]
  LD50 at 24 h: > 1000 mg/kg
[2]; [4]
  IC50: 36 nM
[3]; [5]
  ED50: 15 mg/kg

## Cc1ccc2nc(-c3ccc(Cl)cc3)cc(N3CCC(C(N)=O)CC3)c2c1 [1-[2-(4-Chlorophenyl)-6-methyl-4-quinolinyl]-4-piperidinecarboxamide]
[2]; [4]
  IC50: 460 nM

## NC(=O)C1CCN(c2cc(-c3ccc(F)cc3)nc3ccccc23)CC1 [1-[2-(4-Fluorophenyl)-4-quinolinyl]-4-piperidinecarboxamide]
[1]
  LD50 at 24 h: > 1000 mg/kg
[2]; [4]
  IC50: 1.1 nM
[3]; [5]
  ED50: > 100 mg/kg

## NC(=O)C1CCN(c2cc(-c3ccc(Cl)cc3)nc3ccccc23)CC1 [1-[2-(4-chlorophenyl)-4-quinolinyl]-4-piperidinecarboxamide]
[1]
  LD50 at 24 h: > 1000 mg/kg
[2]; [4]
  IC50: 29 nM
[3]; [5]
  ED50: 24 mg/kg

## CCNC(=O)C1CCN(c2cc(-c3ccc(Cl)cc3)nc3ccccc23)CC1 [1-[2-(4-chlorophenyl)-4-quinolinyl]-N-ethyl-4-piperidinecarboxamide]
[1]
  LD50 at 24 h: > 1000 mg/kg
[2]; [4]
  IC50: 9 nM
[3]; [5]
  ED50: 26 mg/kg

## Cc1ccc2nc(-c3ccc(F)cc3)cc(N3CCC(C(N)=O)CC3)c2c1 [1-[2-(4-fluorophenyl)-6-methyl-4-quinolinyl]-4-piperidinecarboxamide]
[1]
  LD50 at 24 h: > 1000 mg/kg
[2]; [4]
  IC50: 34 nM
[3]; [5]
  ED50: > 100 mg/kg

## Cc1ccc(-c2cc(N3CCC(C(N)=O)CC3)c3ccccc3n2)cc1 [1-[2-(4-methylphenyl)-4-quinolinyl]-4-piperidinecarboxamide]
[1]
  LD50 at 24 h: > 1000 mg/kg
[2]; [4]
  IC50: 1.7 nM
[3]; [5]
  ED50: 37 mg/kg

## NC(=O)C1CCN(c2cc(-c3ccc(F)cc3)nc3ccc(Cl)cc23)CC1 [1-[6-Chloro-2-(4-fluorophenyl)-4-quinolinyl]-4-piperidinecarboxamide]
[1]
  LD50 at 24 h: > 1000 mg/kg
[2]; [4]
  IC50: 28 nM
[3]; [5]
  ED50: 29 mg/kg

## CNC(=O)C1CCN(c2cc(-c3ccc(F)cc3)nc3ccc(Cl)cc23)CC1 [1-[6-Chloro-2-(4-fluorophenyl)-4-quinolinyl]-N-methyl-4-piperidinecarboxamide]
[1]
  LD50 at 24 h: > 1000 mg/kg
[2]; [4]
  IC50: 10.5 nM
[3]; [5]
  ED50: 37 mg/kg

## Cc1ccc(-c2cc(N3CCC(C(N)=O)CC3)c3cc(Cl)ccc3n2)cc1 [1-[6-Chloro-2-(4-methylphenyl)-4-quinolinyl]-4-piperidinecarboxamide]
[1]
  LD50 at 24 h: > 1000 mg/kg
[2]; [4]
  IC50: 60 nM
[3]; [5]
  ED50: > 100 mg/kg

## NC(=O)C1CCN(c2cc(-c3ccccc3)nc3ccc(Cl)cc23)CC1 [1-[6-Chloro-2-phenyl-4-quinolinyl]-4-piperidinecarboxamide]
[1]
  LD50 at 24 h: > 1000 mg/kg
[2]; [4]
  IC50: 96 nM
[3]; [5]
  ED50: 50 mg/kg

## CNC(=O)C1CCN(c2cc(-c3ccc(Cl)cc3)nc3ccc(F)cc23)CC1 [1-[6-Fluoro-2-(4-chlorophenyl)-4-quinolinyl]-N-methyl-4-piperidinecarboxamide]
[1]
  LD50 at 24 h: > 1000 mg/kg
[2]; [4]
  IC50: 70 nM
[3]; [5]
  ED50: > 300 mg/kg

## NC(=O)C1CCN(c2cc(-c3ccc(F)cc3)nc3ccc(F)cc23)CC1 [1-[6-Fluoro-2-(4-fluorophenyl)-4-quinolinyl]-4-piperidinecarboxamide]
[1]
  LD50 at 24 h: > 1000 mg/kg
[2]; [4]
  IC50: 1 nM
[3]; [5]
  ED50: 5 mg/kg

## Cc1ccc(-c2cc(N3CCC(C(N)=O)CC3)c3cc(F)ccc3n2)cc1 [1-[6-Fluoro-2-(4-methylphenyl)-4-quinolinyl]-4-piperidinecarboxamide]
[1]
  LD50 at 24 h: > 1000 mg/kg
[2]; [4]
  IC50: 5.4 nM
[3]; [5]
  ED50: 88 mg/kg

## NC(=O)C1CCN(c2cc(-c3ccccc3)nc3ccc(F)cc23)CC1 [1-[6-Fluoro-2-phenyl-4-quinolinyl]-4-piperidinecarboxamide]
[1]
  LD50 at 24 h: > 1000 mg/kg
[2]; [4]
  IC50: 3.6 nM
[3]; [5]
  ED50: 120 mg/kg

## CCCNC(=O)C1CCN(c2cc(-c3ccccc3)nc3ccc(F)cc23)CC1 [1-[6-Fluoro-2-phenyl-4-quinolinyl]-N-propyl-4-piperidinecarboxamide]
[1]
  LD50 at 24 h: > 1000 mg/kg
[2]; [4]
  IC50: 13 nM
[3]; [5]
  ED50: > 100 mg/kg

## Cc1ccc(-c2cc(N3CCC(C(N)=O)CC3)c3cc(C)ccc3n2)cc1 [1-[6-Methyl-2-(4-methylphenyl)-4-quinolinyl]-4-piperidinecarboxamide]
[2]; [4]
  IC50: 290 nM

## Cc1ccc2nc(-c3ccccc3)cc(N3CCC(C(N)=O)CC3)c2c1 [1-[6-Methyl-2-phenyl-4-quinolinyl]-4-piperidinecarboxamide]
[1]
  LD50 at 24 h: > 1000 mg/kg
[2]; [4]
  IC50: 28 nM
[3]; [5]
  ED50: 90 mg/kg

## NC(=O)C1CCN(c2cc(-c3ccc(Cl)cc3)nc3ccc(Cl)cc23)CC1 [1-[6-chloro-2-(4-chlorophenyl)-4-quinolinyl]-4-piperidinecarboxamide]
[2]; [4]
  IC50: 205 nM

## CNC1=Nc2ccc(Cl)cc2C(c2ccccc2)=[N+]([O-])C1 [Chlordiazepoxide, reference compound]
[3]; [6]
  ED50: 3.9 mg/kg

## CN1C(=O)CN=C(c2ccccc2)c2cc(Cl)ccc21 [Diazepam, reference compound]
[3]; [6]
  ED50: 1 mg/kg

## CCN(CC)CCN1C(=O)CN=C(c2ccccc2F)c2cc(Cl)ccc21 [Flurazepam, reference compound]
[2]; standard drugs, read-out: IC50
  IC50: 15.6 nM

## CCNC(=O)C1CCN(c2cc(-c3ccccc3)nc3ccc(F)cc23)CC1 [N-Ethyl-1-[6-fluoro-2-phenyl-4-quinolinyl]-4-piperidinecarboxamide]
[1]
  LD50 at 24 h: > 1000 mg/kg
[2]; [4]
  IC50: 2.8 nM
[3]; [5]
  ED50: 58 mg/kg

## CCC1(c2ccccc2)C(=O)NC(=O)NC1=O [Sodium Phenobarbital, reference compound]
[3]; [6]
  ED50: 19 mg/kg
